Results as given in article PMC6154558, “Discovery and Biological Evaluation of a Series of Pyrrolo[2,3-b]pyrazines as Novel FGFR Inhibitors” (Molecules : A Journal of Synthetic Chemistry and Natural …, 2017).
Values joined by “and” are separate entries in the source; they are usually repeats but may differ in a detail not shown here. Equal values may be shown once.

Columns and labels:
FGFR1 = target: T1, FGFR1 (Homo sapiens, UniProt P11362); assay: ELISA kinase assay, FGFR1; format: biochemical; settings: for inhibition at 1 µM: 1 μM compound; for IC50: mean ± SD from two separate experiments; for inhibition at 0.01 µM: 0.01 μM compound
T1 construct: purchased Millipore
T1 sequence (P11362 22-822): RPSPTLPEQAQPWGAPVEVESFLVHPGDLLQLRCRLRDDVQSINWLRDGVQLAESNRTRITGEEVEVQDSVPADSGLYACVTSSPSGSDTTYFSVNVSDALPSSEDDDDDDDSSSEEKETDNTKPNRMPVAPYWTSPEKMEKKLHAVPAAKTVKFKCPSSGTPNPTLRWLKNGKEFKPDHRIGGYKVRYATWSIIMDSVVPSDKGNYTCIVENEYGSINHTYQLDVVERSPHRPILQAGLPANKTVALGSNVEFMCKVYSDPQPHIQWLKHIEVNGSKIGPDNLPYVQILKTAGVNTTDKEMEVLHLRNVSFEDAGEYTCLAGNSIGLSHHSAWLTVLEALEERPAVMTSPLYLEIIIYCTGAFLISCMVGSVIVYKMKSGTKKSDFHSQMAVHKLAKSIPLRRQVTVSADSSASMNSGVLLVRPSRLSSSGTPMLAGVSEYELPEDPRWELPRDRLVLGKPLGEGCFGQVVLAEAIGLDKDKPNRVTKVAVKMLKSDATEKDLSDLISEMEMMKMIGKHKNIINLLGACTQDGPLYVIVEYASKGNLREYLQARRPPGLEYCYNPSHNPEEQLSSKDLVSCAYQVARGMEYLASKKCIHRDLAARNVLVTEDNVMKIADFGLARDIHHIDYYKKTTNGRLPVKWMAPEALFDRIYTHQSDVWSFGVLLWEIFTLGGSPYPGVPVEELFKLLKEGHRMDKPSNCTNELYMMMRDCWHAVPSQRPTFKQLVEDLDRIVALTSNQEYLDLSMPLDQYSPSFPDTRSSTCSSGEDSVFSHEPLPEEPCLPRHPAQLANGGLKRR
Protocol: (§1) The effects of compounds on the activities of indicated (FGFR1 and c-Met) kinases were determined using enzyme-linked immunosorbent assays (ELISAs) with purified recombinant proteins. Briefly, 20 μg/mL poly (Glu, Tyr)4:1 (Sigma, St. Louis, MO, USA) was pre-coated in 96-well plates as a substrate. A 50-μL aliquot of 10 μmol/L ATP solution diluted in kinase reaction buffer (50 mmol/L HEPES (pH 7.4), 50 mmol/L MgCl2, 0.5 mmol/L MnCl2, 0.2 mmol/L Na3VO4, and 1 mmol/L DTT) was added to each well; 1 μL of various concentrations of compounds diluted in 1% DMSO (v/v) (Sigma) were then added to each reaction well. DMSO (1%, v/v) was used as the negative control. The kinase reaction was initiated by the addition of purified tyrosine kinase proteins FGFR1 (Millipore, Darmstadt, Germany) or c-Met (Millipore) diluted in 49 μL of kinase reaction buffer. After incubation for 60 min at 37 °C, the plate was washed three times with phosphate-buffered saline (PBS) containing 0.1% Tween 20 (T-PBS). Anti-phosphotyrosine (PY99) antibody (Sanra Cruz, Dallas, USA) (100 μL; 1:500, diluted in 5 mg/mL bovine serum albumin (BSA) T-PBS) was then added. After a 30-min incubation at 37 °C, the plate was washed three times, and 100 μL horseradish peroxidase-conjugated goat anti-mouse IgG (Calbiochem, Shanghai, China) (1:2000, diluted in 5 mg/mL BSA T-PBS) was added. The plate was then incubated at 37°C for 30 min and washed 3 times. A 100-μL aliquot of a solution containing 0.03% H2O2 and 2 mg/mL o-phenylenediamine in 0.1 mol/L citrate buffer (pH 5.5) was added. The reaction was terminated by the addition of 50 μL of 2 mol/L H2SO4 as the color changed, and the plate was analyzed using a multi-well spectrophotometer (SpectraMAX 190, Molecular Devices, Palo Alto, CA, USA) at 490 nm. […] (1) where IR, A490 and A490control are the inhibition rate, the absorbance value of the tested compound at 490 nm and the absorbance value of the negative control compound at 490 nm, respectively. The IC50 values were calculated from the inhibition curves in two separate experiments.

c-Met = target: T2, c-Met (Homo sapiens, UniProt P08581); assay: ELISA kinase assay, c-Met; format: biochemical; settings: for inhibition at 0.01 µM: 0.01 μM compound; for inhibition at 0.1 µM: 0.1 μM compound; for inhibition at 1 µM: 1 μM compound
T2 construct: purchased Millipore
T2 sequence (P08581 25-1390): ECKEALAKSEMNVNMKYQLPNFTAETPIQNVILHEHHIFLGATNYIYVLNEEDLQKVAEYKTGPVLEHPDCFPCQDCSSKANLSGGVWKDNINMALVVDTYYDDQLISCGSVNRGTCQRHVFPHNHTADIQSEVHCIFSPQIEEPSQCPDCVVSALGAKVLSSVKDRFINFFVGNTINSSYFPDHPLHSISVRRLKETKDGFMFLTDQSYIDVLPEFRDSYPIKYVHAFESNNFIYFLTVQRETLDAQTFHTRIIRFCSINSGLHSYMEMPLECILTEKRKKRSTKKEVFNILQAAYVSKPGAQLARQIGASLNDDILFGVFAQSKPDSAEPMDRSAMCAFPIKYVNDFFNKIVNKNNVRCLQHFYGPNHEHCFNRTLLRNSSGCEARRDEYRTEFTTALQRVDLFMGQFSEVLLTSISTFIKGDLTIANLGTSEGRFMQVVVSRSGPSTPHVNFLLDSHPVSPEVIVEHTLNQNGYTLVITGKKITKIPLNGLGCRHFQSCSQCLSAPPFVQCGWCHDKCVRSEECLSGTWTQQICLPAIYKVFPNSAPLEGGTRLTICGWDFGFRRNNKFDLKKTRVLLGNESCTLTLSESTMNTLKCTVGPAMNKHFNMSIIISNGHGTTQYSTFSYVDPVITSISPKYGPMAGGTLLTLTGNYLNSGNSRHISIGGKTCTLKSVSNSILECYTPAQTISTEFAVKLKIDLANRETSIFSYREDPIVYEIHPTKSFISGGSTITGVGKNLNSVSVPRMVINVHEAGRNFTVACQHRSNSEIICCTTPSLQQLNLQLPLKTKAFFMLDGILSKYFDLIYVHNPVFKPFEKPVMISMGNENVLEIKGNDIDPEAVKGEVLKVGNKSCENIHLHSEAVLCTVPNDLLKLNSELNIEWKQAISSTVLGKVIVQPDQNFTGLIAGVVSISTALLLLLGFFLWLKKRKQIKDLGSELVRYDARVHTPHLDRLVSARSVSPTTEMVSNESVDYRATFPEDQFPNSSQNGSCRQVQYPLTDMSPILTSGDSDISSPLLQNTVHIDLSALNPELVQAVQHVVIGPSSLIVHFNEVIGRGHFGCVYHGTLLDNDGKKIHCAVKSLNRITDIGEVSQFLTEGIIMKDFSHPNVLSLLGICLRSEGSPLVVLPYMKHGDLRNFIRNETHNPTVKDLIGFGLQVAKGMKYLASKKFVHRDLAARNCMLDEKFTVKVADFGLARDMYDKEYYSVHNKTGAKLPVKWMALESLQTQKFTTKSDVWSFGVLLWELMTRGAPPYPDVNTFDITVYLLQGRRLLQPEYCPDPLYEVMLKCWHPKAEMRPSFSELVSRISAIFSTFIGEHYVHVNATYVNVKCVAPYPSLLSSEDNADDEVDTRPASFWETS
Protocol: as §1

[1] = 10 μM compound, mean from two separate experiments

inhibition at 1 µM (FGFR1)	inhibition at 10 µM (FGFR1; [1])	inhibition at 0.1 µM (FGFR1; 0.1 μM compound)	Structure (SMILES)	also measured
47.1%	87.8%		Cn1cc(-c2cnc3cnn(S(=O)(=O)c4ccccc4)c3c2)cn1 [Compound 4, 6-(1-Methyl-1H-pyrazol-4-yl)-1-(phenylsulfonyl)-1H-pyrazolo[4,3-b]pyridine]	
	46.1%		Cn1cc(-c2cnc3cnn(S(=O)(=O)Cc4ccccc4)c3c2)cn1 [Compound 5, 1-(Benzylsulfonyl)-6-(1-methyl-1H-pyrazol-4-yl)-1H-pyrazolo[4,3-b]pyridine]	
	53%		Cn1cc(-c2cnc3cnn(Cc4ccccc4)c3c2)cn1 [Compound 6, 1-Benzyl-6-(1-methyl-1H-pyrazol-4-yl)-1H-pyrazolo[4,3-b]pyridine]	
	55.9%		Cn1cc(-c2cnc3cnn(CCc4ccccc4)c3c2)cn1 [Compound 7, 6-(1-Methyl-1H-pyrazol-4-yl)-1-phenethyl-1H-pyrazolo[4,3-b]pyridine]	
31.6%	80.4%		Cn1cc(-c2cnc3ccn(S(=O)(=O)c4ccccc4)c3c2)cn1 [Compound 8, 6-(1-Methyl-1H-pyrazol-4-yl)-1-(phenylsulfonyl)-1H-pyrrolo[3,2-b]pyridine]	
	93.3%	46%	Cn1cc(-c2cnc3ccn(S(=O)(=O)c4ccccc4)c3n2)cn1 [Compound 9, 3-(1-Methyl-1H-pyrazol-4-yl)-5-(phenylsulfonyl)-5H-pyrrolo[2,3-b]pyrazine]	FGFR1 Inhibition (%) (FGFR1; 10 μM compound, mean from two separate experiments, 10 µM): 90.5%
15.4%	50%		Cc1ncc(-c2cnn(C)c2)cc1NS(=O)(=O)c1ccccc1 [Compound 10, N-(2-Methyl-5-(1-methyl-1H-pyrazol-4-yl)pyridin-3-yl)benzenesulfonamide]	
20.8%	34.7%	26.8%	Cn1cc(-c2cnc3ccn(S(=O)(=O)C4CCCC4)c3n2)cn1 [Compound 11, 5-(Cyclopentylsulfonyl)-3-(1-methyl-1H-pyrazol-4-yl)-5H-pyrrolo[2,3-b]pyrazine]	
24.1%	53.3%	29.4%	Cn1cc(-c2cnc3ccn(S(=O)(=O)C4CCCCC4)c3n2)cn1 [Compound 12, 5-(Cyclohexylsulfonyl)-3-(1-methyl-1H-pyrazol-4-yl)-5H-pyrrolo[2,3-b]pyrazine]	
32.6%	59.7%	40.3%	Cn1cc(-c2cnc3ccn(S(=O)(=O)c4ccccc4C#N)c3n2)cn1 [Compound 13, 2-((3-(1-Methyl-1H-pyrazol-4-yl)-5H-pyrrolo[2,3-b]pyrazin-5-yl)sulfonyl)benzonitrile]	
27.2%	45.2%	22%	Cn1cc(-c2cnc3ccn(S(=O)(=O)c4ccc(Cl)cc4)c3n2)cn1 [Compound 14, 5-((4-Chlorophenyl)sulfonyl)-3-(1-methyl-1H-pyrazol-4-yl)-5H-pyrrolo[2,3-b]pyrazine]	
31.2%	55.6%	23.6%	Cn1cc(-c2cnc3ccn(S(=O)(=O)c4ccc(F)cc4F)c3n2)cn1 [Compound 15, 5-((2,4-Difluorophenyl)sulfonyl)-3-(1-methyl-1H-pyrazol-4-yl)-5H-pyrrolo[2,3-b]pyrazine]	
34.8%	74.5%	13.6%	Cn1cc(-c2cnc3ccn(S(=O)(=O)c4ccc(Cl)c(Cl)c4)c3n2)cn1 [Compound 16, 5-((3,4-Dichlorophenyl)sulfonyl)-3-(1-methyl-1H-pyrazol-4-yl)-5H-pyrrolo[2,3-b]pyrazine]	
76.4%	92.1%	61.1%	Cn1cc(-c2cnc3ccn(S(=O)(=O)c4cccc([N+](=O)[O-])c4)c3n2)cn1 [Compound 17, 3-(1-Methyl-1H-pyrazol-4-yl)-5-((3-nitrophenyl)sulfonyl)-5H-pyrrolo[2,3-b]pyrazine]	IC50 (FGFR1): 85.9 ± 21.2 nM; inhibition at 0.01 µM (c-Met): -5.4%; inhibition at 0.1 µM (c-Met): -1.5%; inhibition at 1 µM (c-Met): 30.6%
12.8%	15.5%	17.4%	Cn1cc(-c2cnc3ccn(S(=O)(=O)c4ccc([N+](=O)[O-])cc4)c3n2)cn1 [Compound 18, 3-(1-Methyl-1H-pyrazol-4-yl)-5-((4-nitrophenyl)sulfonyl)-5H-pyrrolo[2,3-b]pyrazine]	
57.5%	82.2%	34.7%	Cn1cc(-c2cnc3ccn(S(=O)(=O)c4cccc(N)c4)c3n2)cn1 [Compound 19, 3-((3-(1-Methyl-1H-pyrazol-4-yl)-5H-pyrrolo[2,3-b]pyrazin-5-yl)sulfonyl)aniline]	
24.2%	42.4%	31.8%	Cn1cc(-c2cnc3ccn(S(=O)(=O)c4ccc(N)cc4)c3n2)cn1 [Compound 20, 4-((3-(1-Methyl-1H-pyrazol-4-yl)-5H-pyrrolo[2,3-b]pyrazin-5-yl)sulfonyl)aniline]	
50.9%	79%	44.7%	CC(=O)Nc1cccc(S(=O)(=O)n2ccc3ncc(-c4cnn(C)c4)nc32)c1 [Compound 21, N-(3-((3-(1-Methyl-1H-pyrazol-4-yl)-5H-pyrrolo[2,3-b]pyrazin-5-yl)sulfonyl)phenyl)acetamide]	
17.3%	38.7%	27.7%	CCC(=O)Nc1cccc(S(=O)(=O)n2ccc3ncc(-c4cnn(C)c4)nc32)c1 [Compound 22, N-(3-((3-(1-Methyl-1H-pyrazol-4-yl)-5H-pyrrolo[2,3-b]pyrazin-5-yl)sulfonyl)phenyl)propionamide]	
58.8%		< 40%	CC(=O)n1cc(-c2cnc3ccn(S(=O)(=O)c4cccc([N+](=O)[O-])c4)c3n2)cn1 [Compound 23, 1-(4-(5-((3-Nitrophenyl)sulfonyl)-5H-pyrrolo[2,3-b]pyrazin-3-yl)-1H-pyrazol-1-yl)ethan-1-one]	inhibition at 0.01 µM (FGFR1): 36.5%; FGFR1 Inhibition (%) (FGFR1; 0.1 μM compound, 0.1 µM): 37.8%
60.9%		< 40%	CCC(=O)n1cc(-c2cnc3ccn(S(=O)(=O)c4cccc([N+](=O)[O-])c4)c3n2)cn1 [Compound 24, 1-(4-(5-((3-Nitrophenyl)sulfonyl)-5H-pyrrolo[2,3-b]pyrazin-3-yl)-1H-pyrazol-1-yl)propan-1-one]	inhibition at 0.01 µM (FGFR1): 29.3%; FGFR1 Inhibition (%) (FGFR1; 0.1 μM compound, 0.1 µM): 30.2%
63.4%		55.7%	CC(=O)Cn1cc(-c2cnc3ccn(S(=O)(=O)c4cccc([N+](=O)[O-])c4)c3n2)cn1 [Compound 25, 1-(4-(5-((3-Nitrophenyl)sulfonyl)-5H-pyrrolo[2,3-b]pyrazin-3-yl)-1H-pyrazol-1-yl)propan-2-one]	inhibition at 0.01 µM (FGFR1): 32.8%; IC50 (FGFR1): 45 nM and 45.9 nM; inhibition at 0.01 µM (c-Met): 5.5%; inhibition at 0.1 µM (c-Met): 5%; inhibition at 1 µM (c-Met): 14.1%
57.9%		35.7%	CC(=O)c1ccc(-c2cnc3ccn(S(=O)(=O)c4cccc([N+](=O)[O-])c4)c3n2)cc1 [Compound 26, 1-(4-(5-((3-Nitrophenyl)sulfonyl)-5H-pyrrolo[2,3-b]pyrazin-3-yl)phenyl)ethan-1-one]	
75.5%		52.2%	O=[N+]([O-])c1cccc(S(=O)(=O)n2ccc3ncc(-c4ccc(CO)cc4)nc32)c1 [Compound 27, (4-(5-((3-Nitrophenyl)sulfonyl)-5H-pyrrolo[2,3-b]pyrazin-3-yl)phenyl)methanol]	IC50 (FGFR1): 113 nM and 114 nM; inhibition at 0.01 µM (c-Met): 1.1%; inhibition at 0.1 µM (c-Met): 8.4%; inhibition at 1 µM (c-Met): 30.1%
62.4%		34%	COc1cccc2cc(-c3cnc4ccn(S(=O)(=O)c5cccc([N+](=O)[O-])c5)c4n3)[nH]c12 [Compound 28, 3-(7-Methoxy-1H-indol-2-yl)-5-((3-nitrophenyl)sulfonyl)-5H-pyrrolo[2,3-b]pyrazine]	inhibition at 0.01 µM (FGFR1): 27.2%
